Assay [1] addresses T1, hTRPA1 expressed in CHO cells (Homo sapiens, UniProt O75762).
T1 construct: expressed in transfected cells; host or cells: CHO cells
Description: in vitro activity of hTRPA1 expressed in CHO cells, intracellular calcium concentration with a fluorescent dye. Format: cell-based. Further details: dose or concentration left out as unconfirmed. Particulars: according to a dose-response curve. On the technique in general: Calcium flux is commonly read through the fluorescence of an indicator in the cells.

The nature of assay [2]: energy expenditure after ingestion in human subjects. Format: in vivo. The method, then: Human subjects were administered placebo, a cooling flavor, capsaicin, or cinnamaldehyde. The energy expenditure was measured over the eighty minutes following ingestion. […] The increased sympathetic activity identified by measuring the facial temperature (increased blood flow on the chin) might explain the increased energy expenditure measured by indirect calorimetry.

Assay [3] in a line: postprandial fat oxidation after ingestion in human subjects. Format: in vivo. The method, then:
The postprandial fat oxidation was measured over the 90 minutes following ingestion of the various compounds.

Assay [4] in a line: nose temperature after ingestion in human subjects. Particulars: fifteen minutes following ingestion, FIG. 7. Format: in vivo. How it is done: The nose temperature of the subjects was analyzed over the fifteen minutes following ingestion of the various compounds.
A short description of assay [5]: chin temperature after ingestion in human subjects. In kind it is in vivo. The following applies: eighty minutes following ingestion, FIG. 8. The method, then:
The chin temperature of the subjects was measured over the eighty minutes following ingestion of the various compounds.

Assay [6] can be described thus: insulin sensitivity in mice with chronic ingestion of cinnamaldehyde in a high fat diet. The following applies: mice chronically fed a high fat diet containing 0.2 wt % cinnamaldehyde, FIG. 11. Format: in vivo. An excerpt: The composition can thereby reduce glycemia.
In a further assay the target is TRPA1 (Homo sapiens, UniProt O75762). Particulars: read-out: EC50 of TRPA1 activation; cited from earlier work.
Setting [7] is: at a flavoring level judged significantly less intense than capsaicin.

Chain of TRPA1 (O75762 whole entry, species assumed): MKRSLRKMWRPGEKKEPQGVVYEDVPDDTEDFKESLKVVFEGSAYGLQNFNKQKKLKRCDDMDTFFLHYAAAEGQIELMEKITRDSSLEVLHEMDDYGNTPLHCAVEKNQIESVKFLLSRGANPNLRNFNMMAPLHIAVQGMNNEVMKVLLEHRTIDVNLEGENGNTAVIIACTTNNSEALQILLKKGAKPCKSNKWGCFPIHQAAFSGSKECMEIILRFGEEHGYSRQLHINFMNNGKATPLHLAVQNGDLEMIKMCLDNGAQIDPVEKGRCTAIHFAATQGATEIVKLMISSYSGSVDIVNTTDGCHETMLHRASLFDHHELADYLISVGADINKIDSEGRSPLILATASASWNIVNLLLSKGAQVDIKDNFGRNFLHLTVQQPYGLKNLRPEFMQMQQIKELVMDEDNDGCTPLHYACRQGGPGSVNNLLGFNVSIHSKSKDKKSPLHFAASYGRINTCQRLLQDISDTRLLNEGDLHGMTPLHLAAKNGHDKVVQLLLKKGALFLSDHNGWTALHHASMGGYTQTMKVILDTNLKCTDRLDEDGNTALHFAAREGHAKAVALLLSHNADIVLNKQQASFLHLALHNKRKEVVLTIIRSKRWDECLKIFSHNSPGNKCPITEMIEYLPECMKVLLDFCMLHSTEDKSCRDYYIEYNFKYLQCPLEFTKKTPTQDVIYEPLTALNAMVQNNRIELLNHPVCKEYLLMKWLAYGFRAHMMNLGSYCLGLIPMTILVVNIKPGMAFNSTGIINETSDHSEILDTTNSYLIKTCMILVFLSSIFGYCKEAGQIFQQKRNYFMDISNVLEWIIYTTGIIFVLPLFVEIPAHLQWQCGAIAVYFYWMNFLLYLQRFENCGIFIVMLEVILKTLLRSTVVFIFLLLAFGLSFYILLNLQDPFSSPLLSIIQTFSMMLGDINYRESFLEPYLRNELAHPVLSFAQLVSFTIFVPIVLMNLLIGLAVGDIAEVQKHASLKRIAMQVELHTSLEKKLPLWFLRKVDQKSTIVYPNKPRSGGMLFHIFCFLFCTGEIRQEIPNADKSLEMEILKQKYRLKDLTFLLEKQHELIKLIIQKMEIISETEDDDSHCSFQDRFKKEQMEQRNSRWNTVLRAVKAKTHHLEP
T1 sequence (O75762 whole entry): as the sequence (O75762 whole entry, species assumed) above

The term EC50 denotes the concentration that produces a half-maximal response. For `O=CC=Cc1ccccc1` [cinnamaldehyde], the “efficacy on hTRPA1 of the positive control C+” value in assay [1] is recorded as “maximum efficacy”. In assay [2] (setting [7]), the “impact on energy expenditure and sympathetic nervous system activity compared to capsaicin” value is reported as “significantly higher impact”. In addition, the “energy expenditure compared to placebo” value in assay [2] (human subjects, eighty minutes following ingestion, time course and AUC, FIGS. 3 and 4) is “increased”. The “effect on fat oxidation compared to capsaicin” value in assay [3] (setting [7]) is “equivalent effect”. Besides, in assay [3] (human subjects, 90 minutes following ingestion, time course and AUC, FIGS. 5 and 6), the “postprandial fat oxidation compared to placebo” value was “maintained at higher levels”. The nose temperature entry in assay [4] is “increase nose temperatures”. Moreover, the “chin temperature relative to baseline” value in assay [5] was “increases chin temperature for a prolonged time”. For the same molecule, the “insulin sensitivity relative to mice fed the same high fat diet without cinnamaldehyde” value in assay [6] was “improved insulin sensitivity”. The concentration giving a half-maximal response (EC50) at TRPA1 is about 10 µM.

Consider `COc1cc(CNC(=O)CCCC/C=C/C(C)C)ccc1O` [capsaicin, reference compound], for which the nose temperature entry in assay [4] is reported as “increase nose temperatures”.
